Assay results reported in patent US20180057507A1, “INHIBITORS OF DUAL LEUCINE ZIPPER (DLK) KINASE FOR THE TREATMENT OF DISEASE” (Board of Regents, The University of Texas System, priority 2016, published 2018).

Target: T1, human DLK (Homo sapiens, UniProt Q12852)
T1 sequence (Q12852 1-859): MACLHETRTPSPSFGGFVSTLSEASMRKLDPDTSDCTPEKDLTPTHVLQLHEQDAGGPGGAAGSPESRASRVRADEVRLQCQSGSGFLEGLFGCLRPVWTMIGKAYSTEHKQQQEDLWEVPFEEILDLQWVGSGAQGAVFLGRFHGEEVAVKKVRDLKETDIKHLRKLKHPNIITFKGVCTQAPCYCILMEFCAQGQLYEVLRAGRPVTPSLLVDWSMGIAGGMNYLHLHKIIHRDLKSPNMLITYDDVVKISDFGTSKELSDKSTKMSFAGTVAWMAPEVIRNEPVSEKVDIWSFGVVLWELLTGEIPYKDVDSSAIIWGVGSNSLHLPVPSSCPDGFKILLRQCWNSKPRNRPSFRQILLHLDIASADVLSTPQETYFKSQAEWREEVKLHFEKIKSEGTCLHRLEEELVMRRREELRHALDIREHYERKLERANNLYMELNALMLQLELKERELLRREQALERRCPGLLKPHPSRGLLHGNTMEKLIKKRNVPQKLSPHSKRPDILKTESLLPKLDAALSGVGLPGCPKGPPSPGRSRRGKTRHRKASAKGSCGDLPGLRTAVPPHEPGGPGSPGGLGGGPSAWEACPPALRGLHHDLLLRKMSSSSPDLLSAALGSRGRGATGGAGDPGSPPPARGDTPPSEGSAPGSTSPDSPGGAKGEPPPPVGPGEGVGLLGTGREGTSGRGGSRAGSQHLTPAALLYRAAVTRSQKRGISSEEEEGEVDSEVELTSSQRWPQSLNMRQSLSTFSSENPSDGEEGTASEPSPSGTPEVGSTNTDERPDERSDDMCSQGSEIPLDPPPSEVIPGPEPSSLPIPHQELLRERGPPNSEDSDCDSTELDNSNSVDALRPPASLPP
Assay: DLK Kd Determinations (KINOMEscan KdELECT, DiscoveRx)
Parameters: full length of human DLK (amino acids 1-859); host or cells: transiently transfected HEK293 cells; unpurified extract
Settings: fusion protein of full length human DLK (amino acids 1-859) and NFkB DNA binding domain; qPCR readout; duplicate
Protocol: The DLK dissociation constants (Kd) have been determined in the KINOMEscan KdELECT Service at DiscoveRx.
A fusion protein of full length of human DLK (amino acids 1-859) and the DNA binding domain of NFkB was expressed in transiently transfected HEK293 cells. From these HEK 293 cells, extracts were prepared in M-PER extraction buffer (Pierce) in the presence of Protease Inhibitor Cocktail Complete (Roche) and Phosphatase Inhibitor Cocktail Set II (Merck) per manufacturers' instructions. The DLK fusion protein was labeled with a chimeric double-stranded DNA tag containing the NFkB binding site (5′-GGGAATTCCC-3′) fused to an amplicon for qPCR readout, which was added directly to the expression extract (the final concentration of DNA-tag in the binding reaction is 0.1 nM).
Streptavidin-coated magnetic beads (Dynal M280) were treated with a biotinylated small molecule ligand for 30 minutes at room temperature to generate affinity resins the binding assays. The liganded beads were blocked with excess biotin and washed with blocking buffer (SeaBlock (Pierce), 1% BSA, 0.05% Tween 20, 1 mM DTT) to remove unbound ligand and to reduce nonspecific binding.
Extracts were used directly in binding assays without any enzyme purification steps at a ≧10,000-fold overall stock dilution (final DNA-tagged enzyme concentration <0.1 nM). Extracts were loaded with DNA-tag and diluted into the binding reaction in a two step process. First extracts were diluted 1:100 in 1× binding buffer (PBS/0.05% Tween 20/10 mM DTT/0.1% BSA/2 μg/ml sonicated salmon sperm DNA) containing 10 nM DNA-tag. This dilution was allowed to equilibrate at room temperature for 15 minutes and then subsequently diluted 1:100 in 1× binding buffer. Test compounds were prepared as 111× stocks in 100% DMSO. Kds were determined using an 11-point 3-fold compound dilution series with three DMSO control points. All compounds for Kd measurements are distributed by acoustic transfer (non-contact dispensing) in 100% DMSO. The compounds were then diluted directly into the assays such that the final concentration of DMSO was 0.9%. All reactions performed in polypropylene 384-well plates. Each was a final volume of 0.02 mL. Assays were incubated with shaking for 1 hour at room temperature. Then the beads were pelleted and washed with wash buffer (1×PBS, 0.05% Tween 20) to remove displaced kinase and test compound. The washed based were re-suspended in elution buffer (1×PBS, 0.05% Tween 20, 0.5 μM non-biotinylated affinity ligand) and incubated at room temperature with shaking for 30 minutes. The kinase concentration in the eluates was measured by qPCR. qPCR reactions were assembled by adding 2.5 μL of kinase eluate to 7.5 μL of qPCR master mix containing 0.15 μM amplicon primers and 0.15 μM amplicon probe. The qPCR protocol consisted of a 10 minute hot start at 95° C., followed by 35 cycles of 95° C. for 15 seconds, 60° C. for 1 minute.
Test compounds were prepared as 111× stocks in 100% DMSO. Kds were determined using an 11-point 3-fold compound dilution series with three DMSO control points. All compounds for Kd measurements are distributed by acoustic transfer (non-contact dispensing) in 100% DMSO. The compounds were then diluted directly into the assays such that the final concentration of DMSO was 0.9%. The Kds were determined using a compound top concentration of 30,000 nM. Kd measurements were performed in duplicate.
Binding constants (Kds) were calculated with a standard dose-response curve using the Hill equation: […]
The Hill Slope was set to −1. Curves were fitted using a non-linear least square fit with the Levenberg-Marquardt algorithm (Levenberg, K., A method for the solution of certain non-linear problems in least squares, Q. Appl. Math. 2, 164-168 (1944)). See also Fabian, M. A. et al. A small molecule-kinase interaction map for clinical kinase inhibitors. Nat. Biotechnol. […]

Compound | Kd
COCCN1C[C@@H]2[C@H](C1)[C@H]2n1cc(-c2cnc(N)c(OC(F)F)c2)nc1C(C)C [Example 113, 3-(difluoromethoxy)-5-(2-isopropyl-1-((1R,5S,6s)-3-(2-methoxyethyl)-3-azabicyclo[3.1.0]hexan-6-yl)-1H-imidazol-4-yl)pyridin-2-amine] | 95 nM
CC(C)c1nc(-c2cnc(N)c(OC(F)(F)F)c2)cn1[C@H]1[C@@H]2CNC[C@@H]21 [Example 58, 5-(1-((1R,5S,6s)-3-azabicyclo[3.1.0]hexan-6-yl)-2-isopropyl-1H-imidazol-4-yl)-3-(trifluoromethoxy)pyridin-2-amine] | 94 nM
CC(C)c1nc(-c2cnc(N)c(C(F)(F)F)c2)cn1C1CCC(O)CC1 (stereo not drawn) [Example 33, 4-(4-(6-amino-5-(trifluoromethyl)pyridin-3-yl)-2-isopropyl-1H-imidazol-1-yl)cyclohexan-1-ol] | 130 nM
Nc1ncc(-c2cn([C@H]3[C@@H]4CN(CC(F)F)C[C@@H]43)c(CC3CC3)n2)cc1OC(F)(F)F [Example 98, 5-(2-(cyclopropylmethyl)-1-((1R,5S,6s)-3-(2,2-difluoroethyl)-3-azabicyclo[3.1.0]hexan-6-yl)-1H-imidazol-4-yl)-3-(trifluoromethoxy)pyridin-2-amine] | 93 nM
CC(C)c1nc(-c2cnc(N)c(C(F)(F)F)c2)cn1[C@H]1C[C@@H](F)C1 [Example 24, 5-(1-((1s,3s)-3-fluorocyclobutyl)-2-isopropyl-1H-imidazol-4-yl)-3-(trifluoromethyl)pyridin-2-amine] | 240 nM
CC(=O)N1C[C@@H]2[C@H](C1)[C@H]2n1cc(-c2cnc(N)c(C(F)(F)F)c2)nc1CC1CC1 [Example 114, 1-((1R,5S,6s)-6-(4-(6-amino-5-(trifluoromethyl)pyridin-3-yl)-2-(cyclopropylmethyl)-1H-imidazol-1-yl)-3-azabicyclo[3.1.0]hexan-3-yl)ethan-1-one] | 66 nM
CC(C)c1nc(-c2cnc(N)c(C(F)(F)F)c2)cn1Cc1ccccn1 [Example 30, 5-(2-isopropyl-1-(pyridin-2-ylmethyl)-1H-imidazol-4-yl)-3-(trifluoromethyl)pyridin-2-amine] | 1500 nM
CC(C)c1nc(-c2cnc(N)c(C(F)(F)F)c2)cn1C1CC(F)(F)C1 [Example 26, 5-(1-(3,3-difluorocyclobutyl)-2-isopropyl-1H-imidazol-4-yl)-3-(trifluoromethyl)pyridin-2-amine] | 400 nM
Nc1ncc(-c2cn([C@H]3[C@@H]4CN(C5COC5)C[C@@H]43)c(C3CCCC3)n2)cc1C(F)(F)F [Example 62, 5-(2-cyclopentyl-1-((1R,5S,6s)-3-(oxetan-3-yl)-3-azabicyclo[3.1.0]hexan-6-yl)-1H-imidazol-4-yl)-3-(trifluoromethyl)pyridin-2-amine] | 85 nM
Nc1ncc(-c2cn([C@H]3[C@@H]4CN(C5COC5)C[C@@H]43)c(C3CCC3)n2)cc1OC(F)(F)F [Example 56, 5-(2-cyclobutyl-1-((1R,5S,6s)-3-(oxetan-3-yl)-3-azabicyclo[3.1.0]hexan-6-yl)-1H-imidazol-4-yl)-3-(trifluoromethoxy)pyridin-2-amine] | 280 nM
COCCN1C[C@@H]2[C@H](C1)[C@H]2n1cc(-c2cnc(N)c(OC(F)F)c2)nc1C(C)C [Example 55, 3-(difluoromethoxy)-5-(2-isopropyl-1-((1R,5S,6s)-3-(2-methoxyethyl)-3-azabicyclo[3.1.0]hexan-6-yl)-1H-imidazol-4-yl)pyridin-2-amine] | 240 nM
Nc1ncc(-c2cn([C@H]3[C@@H]4CN(CC(F)(F)F)C[C@@H]43)c(C3CC3)n2)cc1OC(F)(F)F [Example 70, 5-(2-cyclopropyl-1-((1R,5S,6s)-3-(2,2,2-trifluoroethyl)-3-azabicyclo[3.1.0]hexan-6-yl)-1H-imidazol-4-yl)-3-(trifluoromethoxy)pyridin-2-amine] | 510 nM
